From patent US11753397B2, “Cereblon binders for the degradation of ikaros” (C4 Therapeutics, Inc., priority 2018, dated 2023)
Counter-ions that a name gives are not always drawn.

Tested on: NCIH929.1 cells
Experiment: Cell viability assay (CellTiter-Glo 2.0, ATP quantification)
Assay type: cell-based
Conditions: NCIH929.1 cell viability, CellTiter-Glo 2.0, 96 hr incubation, top concentration 1 μM
Procedure, shortened: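 Read-out is CellTiter-Glo 2.0 luminescence (ATP), after 96 h compound exposure at 37 °C, with a day-0 plate giving the CT0 baseline. Duplicate 10-point half-log titration from 1 μM applied to 750 cells/well in RPMI, 10% FBS, 0.05 mM 2-mercaptoethanol.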

O=C1CCC(N2C(=O)c3cccc(NCc4cnn(CC(F)(F)F)c4)c3C2=O)C(=O)N1 (centres unmarked) [Compound 153, 2-(2,6-dioxo-3-piperidyl)-4-[[1-(2,2,2-trifluoroethyl)pyrazol-4-yl]methylamino]isoindoline-1,3-dione] and O=C1CCC(N2C(=O)c3cccc(NCc4cnn(C5CCN(CC(F)(F)F)CC5)c4)c3C2=O)C(=O)N1 (centres unmarked) [Compound 160, 2-(2,6-Dioxo-piperidin-3-yl)-4-({1-[1-(2,2,2-trifluoro-ethyl)-piperidin-4-yl]-1H-pyrazol-4-ylmethyl}-amino)-isoindole-1,3-dione] cannot be ordered by GI50: < 0.1 µM for the first, < 0.1 µM for the second.

CN(CCCn1cc(CNc2cccc3c2C(=O)N(C2CCC(=O)NC2=O)C3=O)cn1)C(=O)OC(C)(C)C (centres unmarked) [Compound 154, tert-butyl N-[3-[4-[[[2-(2,6-dioxo-3-piperidyl)-1,3-dioxo-isoindolin-4-yl]amino]methyl]pyrazol-1-yl]propyl]-N-methyl-carbamate] and CC(C)(C)OC(=O)CN1CC(n2cc(CNc3cccc4c3C(=O)N(C3CCC(=O)NC3=O)C4=O)cn2)C1 (centres unmarked) [Compound 184, tert-butyl 2-(3-(4-(((2-(2,6-Dioxopiperidin-3-yl)-1,3-dioxoisoindolin-4-yl)amino)methyl)-1H-pyrazol-1-yl)azetidin-1-yl)acetate] cannot be ordered by GI50: < 0.1 µM for the first, < 0.1 µM for the second.

O=C1CCC(N2C(=O)c3cccc(NCc4cnn(CC5CCOCC5)c4)c3C2=O)C(=O)N1 (centres unmarked) [Compound 155, 2-(2,6-dioxo-3-piperidyl)-4-[[1-(tetrahydropyran-4-ylmethyl)pyrazol-4-yl]methylamino]isoindoline-1,3-dione] and O=C1CCC(N2C(=O)c3cccc(NCc4cnn(C5CC5)c4)c3C2=O)C(=O)N1 (centres unmarked) [Compound 163, 4-[(1-Cyclopropyl-1H-pyrazol-4-ylmethyl)-amino]-2-(2,6-dioxo-piperidin-3-yl)-isoindole-1,3-dione] cannot be ordered by GI50: < 0.1 µM for the first, < 0.1 µM for the second.

CC(=O)N1C2CCC1CC(n1cc(CNc3cccc4c3C(=O)N(C3CCC(=O)NC3=O)C4=O)cn1)C2 (centres unmarked) [Compound 156, 4-[[1-(8-acetyl-8-azabicyclo[3.2.1]octan-3-yl)pyrazol-4-yl]methylamino]-2-(2,6-dioxo-3-piperidyl)isoindoline-1,3-dione] and CC(C)(C)OC(=O)N1C2CCC1CC(n1cc(CNc3cccc4c3C(=O)N(C3CCC(=O)NC3=O)C4=O)cn1)C2 (centres unmarked) [Compound 166, tert-Butyl 3-(4-(((2-(2,6-dioxopiperidin-3-yl)-1,3-dioxoisoindolin-4-yl)amino)methyl)-1H-pyrazol-1-yl)-8-azabicyclo[3.2.1]octane-8-carboxylate] cannot be ordered by GI50: < 0.1 µM for the first, < 0.1 µM for the second.

CN1CCC(n2cc(CNc3cccc4c3C(=O)N(C3CCC(=O)NC3=O)C4=O)cn2)CC1 (centres unmarked) [Compound 157, 2-(2,6-dioxo-3-piperidyl)-4-[[1-(1-methyl-4-piperidyl)pyrazol-4-yl]methylamino]isoindoline-1,3-dione] and CC(=O)N1CCC(n2cc(CNc3cccc4c3C(=O)N(C3CCC(=O)NC3=O)C4=O)cn2)CC1 (centres unmarked) [Compound 159, 4-[[1-(1-acetyl-4-piperidyl)pyrazol-4-yl]methylamino]-2-(2,6-dioxo-3-piperidyl)isoindoline-1,3-dione] cannot be ordered by GI50: < 0.1 µM for the first, < 0.1 µM for the second.

O=C1CCC(N2C(=O)c3cccc(NCc4cnn(C5CCCCC5)c4)c3C2=O)C(=O)N1 (centres unmarked) [Compound 158, 4-[(1-cyclohexylpyrazol-4-yl)methylamino]-2-(2,6-dioxo-3-piperidyl)isoindoline-1,3-dione] and O=C1CCC(N2C(=O)c3cccc(NCc4cnn(C5CCC(CC6CCCCC6)CC5)c4)c3C2=O)C(=O)N1 (centres unmarked) [Compound 177, 4-(((1-(4-(Cyclohexylmethyl)cyclohexyl)-1H-pyrazol-4-yl)methyl)amino)-2-(2,6-dioxopiperidin-3-yl)isoindoline-1,3-dione] cannot be ordered by GI50: < 0.1 µM for the first, < 0.1 µM for the second.

CC(C)(C)NC(=O)N1CCC(n2cc(CNc3cccc4c3C(=O)N(C3CCC(=O)NC3=O)C4=O)cn2)CC1 (centres unmarked) [Compound 161, 4-(4-{[2-(2,6-Dioxo-piperidin-3-yl)-1,3-dioxo-2,3-dihydro-1H-isoindol-4-ylamino]-methyl}-pyrazol-1-yl)-piperidine-1-carboxylic acid tert-butylamide] and CN(C(=O)N1CCC(n2cc(CNc3cccc4c3C(=O)N(C3CCC(=O)NC3=O)C4=O)cn2)CC1)C(C)(C)C (centres unmarked) [Compound 178, N-(tert-Butyl)-4-(4-(((2-(2,6-dioxopiperidin-3-yl)-1,3-dioxoisoindolin-4-yl)amino)methyl)-1H-pyrazol-1-yl)-N-methylpiperidine-1-carboxamide] cannot be ordered by GI50: < 0.1 µM for the first, < 0.1 µM for the second.

O=C1CCC(N2C(=O)c3cccc(NCc4cnn(C5CCN(C(=O)OCC(F)(F)F)CC5)c4)c3C2=O)C(=O)N1 (centres unmarked) [Compound 165, 4-(4-{[2-(2,6-Dioxo-piperidin-3-yl)-1,3-dioxo-2,3-dihydro-1H-isoindol-4-ylamino]-methyl}-pyrazol-1-yl)-piperidine-1-carboxylic acid 2,2,2-trifluoro-ethyl ester] and NC1(C(=O)N2CCC(n3cc(CNc4cccc5c4C(=O)N(C4CCC(=O)NC4=O)C5=O)cn3)CC2)CCC1 (centres unmarked) [Compound 175, 4-[[1-[1-(1-aminocyclobutanecarbonyl)-4-piperidyl]pyrazol-4-yl]methylamino]-2-(2,6-dioxo-3-piperidyl)isoindoline-1,3-dione hydrochloride] cannot be ordered by GI50: < 0.1 µM for the first, < 0.1 µM for the second.

CC(C)(C)OC(=O)N1CC2(CC(n3cc(CNc4cccc5c4C(=O)N(C4CCC(=O)NC4=O)C5=O)cn3)C2)C1 (centres unmarked) [Compound 167, tert-Butyl 6-(4-(((2-(2,6-dioxopiperidin-3-yl)-1,3-dioxoisoindolin-4-yl)amino)methyl)-1H-pyrazol-1-yl)-2-azaspiro[3.3]heptane-2-carboxylate] and CC(C)(C)OC(=O)N1CCC(n2cc(CNc3cccc4c3C(=O)N(C3CCC(=O)NC3=O)C4=O)cn2)CC1(C)C (centres unmarked) [Compound 169, tert-Butyl 4-(4-(((2-(2,6-dioxopiperidin-3-yl)-1,3-dioxoisoindolin-4-yl)amino)methyl)-1H-pyrazol-1-yl)-2,2-dimethylpiperidine-1-carboxylate] cannot be ordered by GI50: < 0.1 µM for the first, < 0.001 µM for the second.

CC1CC(n2cc(CNc3cccc4c3C(=O)N(C3CCC(=O)NC3=O)C4=O)cn2)CC(C)N1C(=O)OC(C)(C)C (centres unmarked) [Compound 168, tert-Butyl 4-(4-(((2-(2,6-dioxopiperidin-3-yl)-1,3-dioxoisoindolin-4-yl)amino)methyl)-1H-pyrazol-1-yl)-2,6-dimethylpiperidine-1-carboxylate] and CC(C)(C)OC(=O)N1CCC(n2cc(CNc3cccc4c3C(=O)N(C3CCC(=O)NC3=O)C4=O)cn2)C(F)(F)C1 (centres unmarked) [Compound 176, tert-Butyl 4-(4-(((2-(2,6-dioxopiperidin-3-yl)-1,3-dioxoisoindolin-4-yl)amino)methyl)-1H-pyrazol-1-yl)-3,3-difluoropiperidine-1-carboxylate] cannot be ordered by GI50: < 0.1 µM for the first, < 0.1 µM for the second.

O=C1CCC(N2C(=O)c3cccc(NCc4cnn([C@H]5CC[C@H](C(=O)N6CCCCC6)CC5)c4)c3C2=O)C(=O)N1 (some centres unmarked) [Compound 170, 2-(2,6-Dioxopiperidin-3-yl)-4-(((1-((1r,4r)-4-(piperidine-1-carbonyl)cyclohexyl)-1H-pyrazol-4-yl)methyl)amino)isoindoline-1,3-dione] and CC1(C(=O)N2CCC(C)(n3cc(CNc4cccc5c4C(=O)N(C4CCC(=O)NC4=O)C5=O)cn3)CC2)CCC1 (centres unmarked) [Compound 173, 2-(2,6-Dioxopiperidin-3-yl)-4-(((1-(4-methyl-1-(1-methylcyclobutane-1-carbonyl)piperidin-4-yl)-1H-pyrazol-4-yl)methyl)amino)isoindoline-1,3-dione] cannot be ordered by GI50: < 0.1 µM for the first, < 0.1 µM for the second.

Cc1nn(C2CCN(C(=O)C3(C)CCC3)CC2)c(C)c1CNc1cccc2c1C(=O)N(C1CCC(=O)NC1=O)C2=O (centres unmarked) [Compound 171, 4-(((3,5-Dimethyl-1-(1-(1-methylcyclobutane-1-carbonyl)piperidin-4-yl)-1H-pyrazol-4-yl)methyl)amino)-2-(2,6-dioxopiperidin-3-yl)isoindoline-1,3-dione] and CC1(C(=O)N2CCC(n3cc(CNc4cccc5c4C(=O)N(C4CCC(=O)NC4=O)C5=O)c(N)n3)CC2)CCC1 (centres unmarked) [Compound 179, 4-(((3-Amino-1-(1-(1-methylcyclobutane-1-carbonyl)piperidin-4-yl)-1H-pyrazol-4-yl)methyl)amino)-2-(2,6-dioxopiperidin-3-yl)isoindoline-1,3-dione] cannot be ordered by GI50: < 0.1 µM for the first, < 0.1 µM for the second.

CC1(C(=O)N2CCC(c3ccccc3)(n3cc(CNc4cccc5c4C(=O)N(C4CCC(=O)NC4=O)C5=O)cn3)CC2)CCC1 (centres unmarked) [Compound 172, 2-(2,6-Dioxopiperidin-3-yl)-4-(((1-(1-(1-methylcyclobutane-1-carbonyl)-4-phenylpiperidin-4-yl)-1H-pyrazol-4-yl)methyl)amino)isoindoline-1,3-dione] and O=C1CCC(N2C(=O)c3cccc(NCc4cnn(C5CN(c6ccccc6)C5)c4)c3C2=O)C(=O)N1 (centres unmarked) [Compound 181, 2-(2,6-Dioxo-piperidin-3-yl)-4-{[1-(1-phenyl-azetidin-3-yl)-1H-pyrazol-4-ylmethyl]-amino}-isoindole-1,3-Dione] cannot be ordered by GI50: < 0.1 µM for the first, < 0.1 µM for the second.

Going from CC(Nc1cccc2c1C(=O)N(C1CCC(=O)NC1=O)C2=O)c1cnn(C2CCN(C(=O)OC(C)(C)C)CC2)c1 (centres unmarked) [Compound 174, tert-Butyl 4-(4-(1-((2-(2,6-dioxopiperidin-3-yl)-1,3-dioxoisoindolin-4-yl)amino)ethyl)-1H-pyrazol-1-yl)piperidine-1-carboxylate] to CN(C)CCC(Nc1cccc2c1C(=O)N(C1CCC(=O)NC1=O)C2=O)c1cnn(C2CCN(C(=O)OC(C)(C)C)CC2)c1 (centres unmarked) [Compound 187, tert-Butyl 4-(4-(3-(dimethylamino)-1-((2-(2,6-dioxopiperidin-3-yl)-1,3-dioxoisoindolin-4-yl)amino)propyl)-1H-pyrazol-1-yl)piperidine-1-carboxylate], the GI50 rises from < 0.1 µM to > 0.1 µM.

With CC(C)Oc1cc(C2CC2)cc(-n2cc(CNc3cccc4c3C(=O)N(C3CCC(=O)NC3=O)C4=O)cn2)c1 (centres unmarked) [Compound 180, 4-{[1-(3-Cyclopropyl-5-isopropoxy-phenyl)-1H-pyrazol-4-ylmethyl]-amino}-2-(2,6-dioxo-piperidin-3-yl)-isoindole-1,3-dione] the GI50 was < 0.1 µM.
